Experimental data: the NIST ThermoML archive (doi:10.1016/j.tca.2014.03.038)
Numbers after ± are expanded uncertainties.

Columns and labels:
[1] = 101.33 kPa, Liquid; for mass density: Pycnometric method; for speed of sound: multifrequency ultrasonic interferometer
[2] = xn = mol fraction of the nth substance listed; details: 101 kPa, Liquid; for mass density: Pycnometric method; for speed of sound: multifrequency ultrasonic interferometer

CN(C)CCO [2-(N,N-dimethylamino)ethanol]
[1]
Details	mass density [kg/m3]	speed of sound [m/s]
298.15 K	883.34 ± 0.4	1344.4 ± 0.8
308.15 K	874.99 ± 0.42	1309.1 ± 0.8
318.15 K	866.37 ± 0.44	1274.1 ± 0.8

CN(C)CCO [2-(N,N-dimethylamino)ethanol] + CCO
[2]
Details	mass density, 298.15 K [kg/m3]	mass density, 308.15 K [kg/m3]	mass density, 318.15 K [kg/m3]	speed of sound, 298.15 K [m/s]	speed of sound, 308.15 K [m/s]	speed of sound, 318.15 K [m/s]
x1 = 0.0929	803.31 ± 0.24	795.34 ± 0.27	787.23 ± 0.3	1172.7 ± 0.4	1141.5 ± 0.4	1109.4 ± 0.4
x1 = 0.1972	820.2 ± 0.26	812.45 ± 0.28	804.46 ± 0.31	1206.4 ± 0.5	1176.1 ± 0.5	1144.1 ± 0.5
x1 = 0.3005	834.5 ± 0.27	826.62 ± 0.29	818.61 ± 0.32	1236.8 ± 0.5	1207.1 ± 0.5	1176.3 ± 0.5
x1 = 0.4012	846.38 ± 0.28	838.41 ± 0.31	830.22 ± 0.33	1264.9 ± 0.6	1234.4 ± 0.6	1205.1 ± 0.6
x1 = 0.5051	856.62 ± 0.3	848.64 ± 0.32	840.29 ± 0.35	1290.4 ± 0.6	1259.8 ± 0.6	1231.3 ± 0.6
x1 = 0.6098	864.64 ± 0.31	856.77 ± 0.34	848.47 ± 0.37	1309.3 ± 0.7	1279.1 ± 0.7	1251 ± 0.7
x1 = 0.7086	871.01 ± 0.33	863.28 ± 0.36	854.97 ± 0.38	1321 ± 0.7	1292 ± 0.7	1264.2 ± 0.7
x1 = 0.8031	875.81 ± 0.35	868.08 ± 0.38	859.92 ± 0.4	1329.8 ± 0.8	1300.4 ± 0.8	1271.8 ± 0.8
x1 = 0.9036	879.78 ± 0.37	871.92 ± 0.4	863.76 ± 0.42	1336.4 ± 0.8	1304.5 ± 0.8	1273.3 ± 0.8
x1 = 1	883.34 ± 0.4	874.99 ± 0.42	866.37 ± 0.44	1344.4 ± 0.9	1309.1 ± 0.9	1274.1 ± 0.9

CN(C)CCO [2-(N,N-dimethylamino)ethanol] + CO
[2]
Details	mass density, 298.15 K [kg/m3]	mass density, 308.15 K [kg/m3]	mass density, 318.15 K [kg/m3]	speed of sound, 298.15 K [m/s]	speed of sound, 308.15 K [m/s]	speed of sound, 318.15 K [m/s]
x1 = 0.0971	814.11 ± 0.26	806.11 ± 0.28	797.9 ± 0.31	1152.4 ± 0.5	1126.7 ± 0.5	1101.6 ± 0.5
x1 = 0.1983	835.29 ± 0.27	827.54 ± 0.3	819.51 ± 0.32	1204.7 ± 0.5	1180.5 ± 0.5	1156.2 ± 0.5
x1 = 0.2962	850.65 ± 0.28	842.65 ± 0.31	834.22 ± 0.34	1249.8 ± 0.6	1225.3 ± 0.6	1199.5 ± 0.6
x1 = 0.4039	862.04 ± 0.3	853.81 ± 0.32	845.26 ± 0.35	1290.2 ± 0.6	1265.5 ± 0.6	1238.9 ± 0.6
x1 = 0.502	868.4 ± 0.31	860.4 ± 0.34	852.01 ± 0.36	1312 ± 0.6	1288.1 ± 0.6	1261.3 ± 0.6
x1 = 0.607	873.13 ± 0.33	865.13 ± 0.35	856.89 ± 0.38	1322.4 ± 0.7	1299.3 ± 0.7	1272.9 ± 0.7
x1 = 0.7075	876.61 ± 0.34	868.67 ± 0.37	860.58 ± 0.39	1326.9 ± 0.7	1301.3 ± 0.7	1273.6 ± 0.7
x1 = 0.7999	879.06 ± 0.36	871.15 ± 0.38	862.98 ± 0.41	1330.6 ± 0.8	1303.1 ± 0.8	1273.9 ± 0.8
x1 = 0.9015	881.19 ± 0.38	873.28 ± 0.4	865.23 ± 0.43	1335 ± 0.8	1304.2 ± 0.8	1274 ± 0.8
x1 = 1	883.34 ± 0.4	874.99 ± 0.42	866.37 ± 0.44	1344.4 ± 0.9	1309.1 ± 0.9	1274.1 ± 0.9

CCO [ethanol]
[1]
Details	mass density [kg/m3]	speed of sound [m/s]
298.15 K	785.48 ± 0.23	1143.2 ± 0.1
308.15 K	776.82 ± 0.26	1109.6 ± 0.1
318.15 K	768.08 ± 0.29	1075.5 ± 0.1

CCO [ethanol] + CN(C)CCO
[2], x2 = 0
Details	mass density [kg/m3]	speed of sound [m/s]
298.15 K	785.48 ± 0.23	1143.2 ± 0.4
308.15 K	776.82 ± 0.26	1109.6 ± 0.4
318.15 K	768.08 ± 0.29	1075.5 ± 0.4

CO [methanol]
[1]
Details	mass density [kg/m3]	speed of sound [m/s]
298.15 K	786.74 ± 0.24	1100.7 ± 0.2
308.15 K	777.45 ± 0.26	1068.2 ± 0.2
318.15 K	768.01 ± 0.29	1037 ± 0.2

CO [methanol] + CN(C)CCO
[2], x2 = 0
Details	mass density [kg/m3]	speed of sound [m/s]
298.15 K	786.74 ± 0.24	1100.7 ± 0.5
308.15 K	777.45 ± 0.26	1068.2 ± 0.5
318.15 K	768.01 ± 0.29	1037 ± 0.5
